Publication PMC10910009, “Comparing ATPase activity of ATP-binding cassette subfamily C member 4, lamprey CFTR, and human CFTR using an antimony-phosphomolybdate assay” (Frontiers in Pharmacology, 2024)

Tests used:
hCFTR = biological target: T1, hCFTR (Homo sapiens, UniProt P13569); settings: Sf9 crude membranes, control membranes subtracted; 1 mM Na2ATP, 5 mM MgCl2, PKA, pH 7.4, 30 °C, 1 h
T1 construct: gene CFTR

Lp-CFTR = biological target: T2, Lp-CFTR (Petromyzon marinus, UniProt A0A5Q0TXR8); assay: antimony-phosphomolybdate Pi release (ATPase); format: biochemical; settings: Sf9 crude membranes, control membranes subtracted; 1 mM Na2ATP, 5 mM MgCl2, PKA, pH 7.4, 30 °C, 1 h
T2 construct: lamprey CFTR in pFastBac vector with 6xHis tag; baculovirus/Sf9 crude plasma membranes, not purified; PKA-phosphorylated
T2 sequence (A0A5Q0TXR8 1-1466): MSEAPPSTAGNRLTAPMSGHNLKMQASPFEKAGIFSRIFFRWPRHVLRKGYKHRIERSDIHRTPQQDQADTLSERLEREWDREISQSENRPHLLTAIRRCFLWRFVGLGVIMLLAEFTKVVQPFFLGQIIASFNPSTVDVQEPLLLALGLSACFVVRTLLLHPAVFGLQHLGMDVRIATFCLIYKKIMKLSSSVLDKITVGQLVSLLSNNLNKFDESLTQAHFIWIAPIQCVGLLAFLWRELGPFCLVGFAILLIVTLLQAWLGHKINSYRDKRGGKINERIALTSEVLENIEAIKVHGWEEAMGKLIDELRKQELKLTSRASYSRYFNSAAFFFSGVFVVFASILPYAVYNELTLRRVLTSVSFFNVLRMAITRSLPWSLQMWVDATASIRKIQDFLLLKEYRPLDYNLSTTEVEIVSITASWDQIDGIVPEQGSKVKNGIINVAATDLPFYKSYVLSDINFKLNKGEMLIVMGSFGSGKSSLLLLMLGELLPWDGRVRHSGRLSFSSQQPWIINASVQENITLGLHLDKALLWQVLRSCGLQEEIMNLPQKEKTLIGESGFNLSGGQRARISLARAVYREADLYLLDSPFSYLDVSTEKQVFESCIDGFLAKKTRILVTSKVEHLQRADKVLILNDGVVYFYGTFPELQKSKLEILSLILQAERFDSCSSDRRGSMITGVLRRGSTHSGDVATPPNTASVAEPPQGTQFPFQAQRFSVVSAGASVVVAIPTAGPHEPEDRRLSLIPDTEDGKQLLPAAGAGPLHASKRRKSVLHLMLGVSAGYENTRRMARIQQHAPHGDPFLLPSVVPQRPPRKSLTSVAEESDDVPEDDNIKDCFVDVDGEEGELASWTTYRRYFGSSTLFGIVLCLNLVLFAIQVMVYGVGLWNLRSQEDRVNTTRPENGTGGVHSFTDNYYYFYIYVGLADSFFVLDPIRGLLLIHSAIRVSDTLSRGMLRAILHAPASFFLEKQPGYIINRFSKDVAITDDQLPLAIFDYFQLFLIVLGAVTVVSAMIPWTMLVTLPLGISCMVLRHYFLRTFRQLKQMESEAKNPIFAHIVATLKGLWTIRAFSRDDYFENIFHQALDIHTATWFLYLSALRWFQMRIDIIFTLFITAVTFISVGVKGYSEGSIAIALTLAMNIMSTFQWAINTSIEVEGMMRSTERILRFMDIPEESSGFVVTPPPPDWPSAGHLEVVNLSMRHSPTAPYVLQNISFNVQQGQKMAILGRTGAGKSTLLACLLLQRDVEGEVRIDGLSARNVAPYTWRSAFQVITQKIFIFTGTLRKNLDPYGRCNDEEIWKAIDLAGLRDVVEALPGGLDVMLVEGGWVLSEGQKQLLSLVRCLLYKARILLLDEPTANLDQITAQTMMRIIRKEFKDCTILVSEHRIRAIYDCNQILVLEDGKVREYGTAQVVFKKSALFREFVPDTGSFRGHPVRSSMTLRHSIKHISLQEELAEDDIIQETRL

[1] = substrate: Nc1ncnc2c1ncn2[C@@H]1O[C@H](COP(=O)(O)OP(=O)(O)OP(=O)(O)O)[C@@H](O)[C@H]1O; assay: antimony-phosphomolybdate Pi release (ATPase), Michaelis-Menten fit; format: biochemical, Homo sapiens; settings: printed as Kd but from Michaelis-Menten fit of ATPase activity, Sf9 crude membranes, control membranes subtracted, 5 mM MgCl2, pH 7.4, 37 °C, 20 min, no PKA, no transport substrate

T1 sequence (P13569 whole entry): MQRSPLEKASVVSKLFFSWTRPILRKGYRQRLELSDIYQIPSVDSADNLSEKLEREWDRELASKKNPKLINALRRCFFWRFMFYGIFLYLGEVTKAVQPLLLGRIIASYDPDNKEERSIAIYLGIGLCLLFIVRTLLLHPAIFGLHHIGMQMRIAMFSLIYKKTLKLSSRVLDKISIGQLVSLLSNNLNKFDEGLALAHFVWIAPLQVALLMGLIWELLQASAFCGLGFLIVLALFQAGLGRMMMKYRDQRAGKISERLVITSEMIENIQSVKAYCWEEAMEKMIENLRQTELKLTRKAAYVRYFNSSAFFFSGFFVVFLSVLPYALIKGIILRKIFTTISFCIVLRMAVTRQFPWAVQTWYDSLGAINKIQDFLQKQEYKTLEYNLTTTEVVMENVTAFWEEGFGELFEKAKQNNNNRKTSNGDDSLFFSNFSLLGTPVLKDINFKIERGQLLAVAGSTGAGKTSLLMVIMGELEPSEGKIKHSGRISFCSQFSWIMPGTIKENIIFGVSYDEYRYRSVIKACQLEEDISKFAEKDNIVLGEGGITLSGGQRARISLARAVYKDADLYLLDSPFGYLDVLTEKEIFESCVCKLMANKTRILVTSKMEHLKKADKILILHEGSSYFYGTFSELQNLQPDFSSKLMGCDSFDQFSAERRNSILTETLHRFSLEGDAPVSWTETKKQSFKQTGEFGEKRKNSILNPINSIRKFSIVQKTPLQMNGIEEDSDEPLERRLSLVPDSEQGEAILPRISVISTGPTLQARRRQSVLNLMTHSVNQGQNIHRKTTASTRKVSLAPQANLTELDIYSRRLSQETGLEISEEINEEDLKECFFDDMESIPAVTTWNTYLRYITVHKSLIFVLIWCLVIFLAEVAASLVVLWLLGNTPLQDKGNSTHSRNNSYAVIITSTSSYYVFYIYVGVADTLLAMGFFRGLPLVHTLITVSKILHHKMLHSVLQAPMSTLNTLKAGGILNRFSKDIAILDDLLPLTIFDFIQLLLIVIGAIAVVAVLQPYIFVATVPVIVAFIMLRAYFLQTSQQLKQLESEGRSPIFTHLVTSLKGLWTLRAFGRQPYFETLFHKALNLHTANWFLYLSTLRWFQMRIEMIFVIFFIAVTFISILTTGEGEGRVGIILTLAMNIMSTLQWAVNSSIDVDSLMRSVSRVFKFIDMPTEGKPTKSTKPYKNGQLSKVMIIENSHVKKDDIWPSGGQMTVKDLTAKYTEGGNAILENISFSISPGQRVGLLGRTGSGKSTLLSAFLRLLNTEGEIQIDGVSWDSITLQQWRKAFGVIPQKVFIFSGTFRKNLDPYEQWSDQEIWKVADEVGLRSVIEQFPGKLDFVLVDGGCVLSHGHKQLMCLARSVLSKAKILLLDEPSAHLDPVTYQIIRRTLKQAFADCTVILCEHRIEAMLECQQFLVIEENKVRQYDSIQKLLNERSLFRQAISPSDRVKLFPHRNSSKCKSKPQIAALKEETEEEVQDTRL

## Nc1ncnc2c1ncn2[C@@H]1O[C@H](COP(=O)(O)OP(=O)(O)OP(=O)(O)O)[C@@H](O)[C@H]1O [ATP]
hCFTR
  antimony-phosphomolybdate Pi release (ATPase): hCFTR exhibited higher ATPase activity in high PKA compared to low PKA conditions
Lp-CFTR
  antimony-phosphomolybdate Pi release (ATPase): Lp-CFTR exhibited higher ATPase activity in high PKA compared to low PKA conditions

B1: hABCC4 (Homo sapiens) (protein)
chain: MLPVYQEVKPNPLQDANLCSRVFFWWLNPLFKIGHKRRLEEDDMYSVLPEDRSQHLGEELQGFWDKEVLRAENDAQKPSLTRAIIKCYWKSYLVLGIFTLIEESAKVIQPIFLGKIINYFENYDPMDSVALNTAYAYATVLTFCTLILAILHHLYFYHVQCAGMRLRVAMCHMIYRKALRLSNMAMGKTTTGQIVNLLSNDVNKFDQVTVFLHFLWAGPLQAIAVTALLWMEIGISCLAGMAVLIILLPLQSCFGKLFSSLRSKTATFTDARIRTMNEVITGIRIIKMYAWEKSFSNLITNLRKKEISKILRSSCLRGMNLASFFSASKIIVFVTFTTYVLLGSVITASRVFVAVTLYGAVRLTVTLFFPSAIERVSEAIVSIRRIQTFLLLDEISQRNRQLPSDGKKMVHVQDFTAFWDKASETPTLQGLSFTVRPGELLAVVGPVGAGKSSLLSAVLGELAPSHGLVSVHGRIAYVSQQPWVFSGTLRSNILFGKKYEKERYEKVIKACALKKDLQLLEDGDLTVIGDRGTTLSGGQKARVNLARAVYQDADIYLLDDPLSAVDAEVSRHLFELCICQILHEKITILVTHQLQYLKAASQILILKDGKMVQKGTYTEFLKSGIDFGSLLKKDNEESEQPPVPGTPTLRNRTFSESSVWSQQSSRPSLKDGALESQDTENVPVTLSEENRSEGKVGFQAYKNYFRAGAHWIVFIFLILLNTAAQVAYVLQDWWLSYWANKQSMLNVTVNGGGNVTEKLDLNWYLGIYSGLTVATVLFGIARSLLVFYVLVNSSQTLHNKMFESILKAPVLFFDRNPIGRILNRFSKDIGHLDDLLPLTFLDFIQTLLQVVGVVSVAVAVIPWIAIPLVPLGIIFIFLRRYFLETSRDVKRLESTTRSPVFSHLSSSLQGLWTIRAYKAEERCQELFDAHQDLHSEAWFLFLTTSRWFAVRLDAICAMFVIIVAFGSLILAKTLDAGQVGLALSYALTLMGMFQWCVRQSAEVENMMISVERVIEYTDLEKEAPWEYQKRPPPAWPHEGVIIFDNVNFMYSPGGPLVLKHLTALIKSQEKVGIVGRTGAGKSSLISALFRLSEPEGKIWIDKILTTEIGLHDLRKKMSIIPQEPVLFTGTMRKNLDPFNEHTDEELWNALQEVQLKETIEDLPGKMDTELAESGSNFSVGQRQLVCLARAILRKNQILIIDEATANVDPRTDELIQKKIREKFAHCTVLTIAHRLNTIIDSDKIMVLDSGRLKEYDEPYVLLQNKESLFYKMVQQLGKAEAAALTETAKQVYFKRNYPHIGHTDHMVTNTSNGQPSTLTIFETAL
notes: human ABCC4 in pFastBac vector with 6xHis tag; baculovirus/Sf9 crude plasma membranes, not purified
[1]
  Km: 550 ± 280 µM
